Legend:
[1] = tested on: Salmonella typhimurium TA98; assay: Ames test (reverse mutation test), pre-incubation method, strain TA98; conditions: for potential to induce reverse mutations: TA98, in the presence of S9 mix
Description: (§1) Ames Test (Reverse Mutation Test)
(§2) Metabolites 1 to 3 and Metabolites A to E were each tested herein. The purpose of this test is to evaluate the potential of each metabolite to induce reverse mutations in the standard strains of Salmonella typhimurium (TA98, TA1537, TA100, and TA1535) and Escherichia coli (WP2uvrA), in either the presence or absence of a rat liver metabolic activation system (S9 mix).
(§3) The solvent used herein was dimethyl sulfoxide (DMSO, 100 μL/plate).
(§4) The test was performed by the pre-incubation method with or without S9 mix. When the test was performed without S9 mix, sodium phosphate buffer solution (pH 7.4) was added.
(§5) 0.5 mL of S9 mix or 0.5 mL of 0.1 mol/L sodium phosphate buffer solution (pH 7.4), and 0.1 mL of the bacterial culture solution were added to a test tube containing 0.1 mL of the negative control formulation (DMSO alone), the metabolite, or the positive control formulation. The mixtures were pre-incubated at 37° C. for 20 minutes while shaking. After the pre-incubation period, 2 mL of top agar were added and the mixtures were vortex-mixed and seeded onto plates. Two plates per treatment were used. Each plate was incubated at 37±1° C. for 48 hours or more and the revertant colonies were counted. The mean number of revertant colonies for each treatment plate was then calculated. The presence or absence of growth inhibition due to any antibacterial effect of the test article and precipitation of the test article was observed grossly or under a stereomicroscope. […] Evaluation was based on mean values with no statistical comparisons being used.

[2] = tested on: Salmonella typhimurium TA1537; assay: Ames test (reverse mutation test), pre-incubation method, strain TA1537; format: cell-based; conditions: for potential to induce reverse mutations: TA1537
Description: as §1, §2, §3, §4, §5

[3] = tested on: Salmonella typhimurium TA100; assay: Ames test (reverse mutation test), pre-incubation method, strain TA100; format: cell-based; conditions: for potential to induce reverse mutations: TA100, in the presence of S9 mix
Description: as §1, §2, §3, §4, §5

Escherichia coli WP2uvrA = assay: Ames test (reverse mutation test), pre-incubation method, strain WP2uvrA; format: cell-based
From the text: as §1
Two plates per treatment were used.

[4] = tested on: Salmonella typhimurium TA1535; assay: Ames test (reverse mutation test), pre-incubation method, strain TA1535; format: cell-based; conditions: TA1535
Description: as §1, §2, §3, §4, §5

## Nc1cc(-c2cc(F)cc(OC(F)(F)F)c2)n(-c2cncc(F)c2)n1 [Metabolite 2]
[1]; S9 mix +, dose 62 μg/plate
  Number of revertant colonies TA98: 35
[1]; S9 mix −, dose 21 μg/plate
  Number of revertant colonies TA98: 30
[1]; S9 mix −, dose 185 μg/plate
  Number of revertant colonies TA98: 28
[2]; S9 mix +, dose 6.9 μg/plate
  Number of revertant colonies TA1537: 12
[2]; S9 mix +, dose 21 μg/plate
  Number of revertant colonies TA1537: 13
[2]; S9 mix +, dose 62 μg/plate
  Number of revertant colonies TA1537: 12
[2]; S9 mix +, dose 185 μg/plate
  Number of revertant colonies TA1537: 12
[2]; S9 mix +, dose 556 μg/plate
  Number of revertant colonies TA1537: 8
[2]; S9 mix +, dose 1667 μg/plate
  Number of revertant colonies TA1537: 0
[2]; S9 mix +, dose 5000 μg/plate
  Number of revertant colonies TA1537: 1
[2]; S9 mix −, dose 6.9 μg/plate
  Number of revertant colonies TA1537: 9
[2]; S9 mix −, dose 21 μg/plate
  Number of revertant colonies TA1537: 8
[2]; S9 mix −, dose 62 μg/plate
  Number of revertant colonies TA1537: 8
[2]; S9 mix −, dose 185 μg/plate
  Number of revertant colonies TA1537: 8
[2]; S9 mix −, dose 556 μg/plate
  Number of revertant colonies TA1537: 3
[2]; S9 mix −, dose 1667 μg/plate
  Number of revertant colonies TA1537: 3
[2]; S9 mix −, dose 5000 μg/plate
  Number of revertant colonies TA1537: 2
[3]; S9 mix +, dose 6.9 μg/plate
  Number of revertant colonies TA100: 109
[3]; S9 mix +, dose 21 μg/plate
  Number of revertant colonies TA100: 119
[3]; S9 mix +, dose 62 μg/plate
  Number of revertant colonies TA100: 118
[3]; S9 mix +, dose 185 μg/plate
  Number of revertant colonies TA100: 125
[3]; S9 mix +, dose 556 μg/plate
  Number of revertant colonies TA100: 115
[3]; S9 mix +, dose 1667 μg/plate
  Number of revertant colonies TA100: 97
[3]; S9 mix +, dose 5000 μg/plate
  Number of revertant colonies TA100: 92
[3]; S9 mix −, dose 6.9 μg/plate
  Number of revertant colonies TA100: 89
[3]; S9 mix −, dose 21 μg/plate
  Number of revertant colonies TA100: 90
[3]; S9 mix −, dose 62 μg/plate
  Number of revertant colonies TA100: 87
[3]; S9 mix −, dose 185 μg/plate
  Number of revertant colonies TA100: 86
[3]; S9 mix −, dose 556 μg/plate
  Number of revertant colonies TA100: 6
[3]; S9 mix −, dose 1667 μg/plate
  Number of revertant colonies TA100: 5
[3]; S9 mix −, dose 5000 μg/plate
  Number of revertant colonies TA100: 5
Escherichia coli WP2uvrA; S9 mix +, dose 6.9 μg/plate
  Number of revertant colonies WP2uvrA: 19
Escherichia coli WP2uvrA; S9 mix +, dose 21 μg/plate
  Number of revertant colonies WP2uvrA: 19
Escherichia coli WP2uvrA; S9 mix +, dose 62 μg/plate
  Number of revertant colonies WP2uvrA: 19
Escherichia coli WP2uvrA; S9 mix +, dose 185 μg/plate
  Number of revertant colonies WP2uvrA: 19
Escherichia coli WP2uvrA; S9 mix +, dose 556 μg/plate
  Number of revertant colonies WP2uvrA: 17
Escherichia coli WP2uvrA; S9 mix +, dose 1667 μg/plate
  Number of revertant colonies WP2uvrA: 14
Escherichia coli WP2uvrA; S9 mix +, dose 5000 μg/plate
  Number of revertant colonies WP2uvrA: 9
Escherichia coli WP2uvrA; S9 mix −, dose 6.9 μg/plate
  Number of revertant colonies WP2uvrA: 21
Escherichia coli WP2uvrA; S9 mix −, dose 21 μg/plate
  Number of revertant colonies WP2uvrA: 16
Escherichia coli WP2uvrA; S9 mix −, dose 62 μg/plate
  Number of revertant colonies WP2uvrA: 23
Escherichia coli WP2uvrA; S9 mix −, dose 185 μg/plate
  Number of revertant colonies WP2uvrA: 20
Escherichia coli WP2uvrA; S9 mix −, dose 556 μg/plate
  Number of revertant colonies WP2uvrA: 16
Escherichia coli WP2uvrA; S9 mix −, dose 1667 μg/plate
  Number of revertant colonies WP2uvrA: 13
Escherichia coli WP2uvrA; S9 mix −, dose 5000 μg/plate
  Number of revertant colonies WP2uvrA: 8

## Nc1cc(-c2cc(F)cc(OC(F)(F)F)c2)n(-c2cncc(C(F)(F)F)c2)n1 [Metabolite 3]
[1]; S9 mix +, dose 62 μg/plate
  Number of revertant colonies TA98: 38
[1]; S9 mix −, dose 62 μg/plate
  Number of revertant colonies TA98: 29
[2]; S9 mix +, dose 6.9 μg/plate
  Number of revertant colonies TA1537: 13
[2]; S9 mix +, dose 21 μg/plate
  Number of revertant colonies TA1537: 11
[2]; S9 mix +, dose 62 μg/plate
  Number of revertant colonies TA1537: 12
[2]; S9 mix +, dose 185 μg/plate
  Number of revertant colonies TA1537: 12
[2]; S9 mix +, dose 556 μg/plate
  Number of revertant colonies TA1537: 8
[2]; S9 mix +, dose 1667 μg/plate
  Number of revertant colonies TA1537: 3
[2]; S9 mix +, dose 5000 μg/plate
  Number of revertant colonies TA1537: 1
[2]; S9 mix −, dose 6.9 μg/plate
  Number of revertant colonies TA1537: 8
[2]; S9 mix −, dose 21 μg/plate
  Number of revertant colonies TA1537: 7
[2]; S9 mix −, dose 62 μg/plate
  Number of revertant colonies TA1537: 8
[2]; S9 mix −, dose 185 μg/plate
  Number of revertant colonies TA1537: 7
[2]; S9 mix −, dose 556 μg/plate
  Number of revertant colonies TA1537: 2
[2]; S9 mix −, dose 1667 μg/plate
  Number of revertant colonies TA1537: 3
[2]; S9 mix −, dose 5000 μg/plate
  Number of revertant colonies TA1537: 2
[3]; S9 mix +, dose 6.9 μg/plate
  Number of revertant colonies TA100: 134
[3]; S9 mix +, dose 21 μg/plate
  Number of revertant colonies TA100: 123
[3]; S9 mix +, dose 62 μg/plate
  Number of revertant colonies TA100: 108
[3]; S9 mix +, dose 185 μg/plate
  Number of revertant colonies TA100: 103
[3]; S9 mix +, dose 556 μg/plate
  Number of revertant colonies TA100: 99
[3]; S9 mix +, dose 1667 μg/plate
  Number of revertant colonies TA100: 67
[3]; S9 mix +, dose 5000 μg/plate
  Number of revertant colonies TA100: 43
[3]; S9 mix −, dose 6.9 μg/plate
  Number of revertant colonies TA100: 88
[3]; S9 mix −, dose 21 μg/plate
  Number of revertant colonies TA100: 91
[3]; S9 mix −, dose 62 μg/plate
  Number of revertant colonies TA100: 93
[3]; S9 mix −, dose 185 μg/plate
  Number of revertant colonies TA100: 92
[3]; S9 mix −, dose 556 μg/plate
  Number of revertant colonies TA100: 59
[3]; S9 mix −, dose 1667 μg/plate
  Number of revertant colonies TA100: 29
[3]; S9 mix −, dose 5000 μg/plate
  Number of revertant colonies TA100: 12
Escherichia coli WP2uvrA; S9 mix +, dose 6.9 μg/plate
  Number of revertant colonies WP2uvrA: 22
Escherichia coli WP2uvrA; S9 mix +, dose 21 μg/plate
  Number of revertant colonies WP2uvrA: 22
Escherichia coli WP2uvrA; S9 mix +, dose 62 μg/plate
  Number of revertant colonies WP2uvrA: 21
Escherichia coli WP2uvrA; S9 mix +, dose 185 μg/plate
  Number of revertant colonies WP2uvrA: 21
Escherichia coli WP2uvrA; S9 mix +, dose 556 μg/plate
  Number of revertant colonies WP2uvrA: 18
Escherichia coli WP2uvrA; S9 mix +, dose 1667 μg/plate
  Number of revertant colonies WP2uvrA: 21
Escherichia coli WP2uvrA; S9 mix +, dose 5000 μg/plate
  Number of revertant colonies WP2uvrA: 19
Escherichia coli WP2uvrA; S9 mix −, dose 6.9 μg/plate
  Number of revertant colonies WP2uvrA: 23
Escherichia coli WP2uvrA; S9 mix −, dose 21 μg/plate
  Number of revertant colonies WP2uvrA: 15
Escherichia coli WP2uvrA; S9 mix −, dose 62 μg/plate
  Number of revertant colonies WP2uvrA: 23
Escherichia coli WP2uvrA; S9 mix −, dose 185 μg/plate
  Number of revertant colonies WP2uvrA: 20
Escherichia coli WP2uvrA; S9 mix −, dose 556 μg/plate
  Number of revertant colonies WP2uvrA: 22
Escherichia coli WP2uvrA; S9 mix −, dose 1667 μg/plate
  Number of revertant colonies WP2uvrA: 19
Escherichia coli WP2uvrA; S9 mix −, dose 5000 μg/plate
  Number of revertant colonies WP2uvrA: 14

## CC(C)(OCc1cc(F)cc(-c2cc(N)nn2-c2ccc(F)cc2)c1)C(F)(F)F [Metabolite A, reference compound]
[1]
  potential to induce reverse mutations: had potential to induce reverse mutations
[2]; in the presence of S9 mix
  potential to induce reverse mutations: had potential to induce reverse mutations

## Nc1cc(-c2cccc(OCC(F)(F)F)c2)n(-c2ccc(F)cc2)n1 [Metabolite B, reference compound]
[1]
  potential to induce reverse mutations: had potential to induce reverse mutations
[2]; in the absence of S9 mix
  potential to induce reverse mutations: had potential to induce reverse mutations
[2]; in the presence of S9 mix
  potential to induce reverse mutations: had potential to induce reverse mutations
[3]
  potential to induce reverse mutations: had potential to induce reverse mutations
[4]; in the presence of S9 mix
  potential to induce reverse mutations: had potential to induce reverse mutations

## Cc1ccc(-n2nc(N)cc2-c2cccc(OCC(F)(F)F)c2)cc1 [Metabolite C, reference compound]
[1]
  potential to induce reverse mutations: had potential to induce reverse mutations
[2]; in the presence of S9 mix
  potential to induce reverse mutations: had potential to induce reverse mutations
[3]
  potential to induce reverse mutations: had potential to induce reverse mutations
Escherichia coli WP2uvrA; WP2uvrA, in the absence of S9 mix
  potential to induce reverse mutations: had potential to induce reverse mutations

## Nc1cc(-c2cccc(OC(F)(F)F)c2)n(-c2cccc(F)c2)n1 [Metabolite D, reference compound]
[3]
  potential to induce reverse mutations: had potential to induce reverse mutations
[4]; in the absence of S9 mix
  potential to induce reverse mutations: had potential to induce reverse mutations

## Cc1cccc(-n2nc(N)cc2-c2cccc(OC(F)(F)F)c2)c1 [Metabolite E, reference compound]
[1]
  potential to induce reverse mutations: had potential to induce reverse mutations
[2]; in the presence of S9 mix
  potential to induce reverse mutations: had potential to induce reverse mutations
[3]
  potential to induce reverse mutations: had potential to induce reverse mutations

From patent US10988462B2, “Pyrazole compounds substituted with heteroaryl and pharmaceutical use thereof” (Japan Tobacco Inc., priority 2018, dated 2021)
